Values quoted from earlier work in EP4046639A1, “PREVENTION OF PULMONARY VASCULAR LEAK IN COVID-19” (priority 2021, dated 2022).
Where two headings read alike, the source gives them in different places.

Test system: Covid-19

C[C@@H]1C[C@H]2[C@@H]3CCC4=CC(=O)C=C[C@]4(C)[C@@]3(F)[C@@H](O)C[C@]2(C)[C@@]1(O)C(=O)CO [Dexamethason]
Covid-19 mortality (hospitalized patients, reduced from 24): 20% | Covid-19 mortality (patients in the intensive care unit (ICU), reduced from 40): 30%
